We go through 2 compounds from paper PMC5609913, “Structure based design, synthesis and activity studies of small hybrid molecules as HDAC and G9a dual inhibitors” (Oncotarget, 2017).

The target in assay [1] is T1, Mouse histone methyltransferase G9a (969-1263) (Mus musculus, UniProt Q9Z148).
T1 construct: The 6His-sumo mG9a (969-1263) protein was purified using the following procedure; 6His-sumo (N, cleaved yes); made in house; host or cells: Escherichia coli BL21 (DE3)
T1 sequence (Q9Z148 969-1263): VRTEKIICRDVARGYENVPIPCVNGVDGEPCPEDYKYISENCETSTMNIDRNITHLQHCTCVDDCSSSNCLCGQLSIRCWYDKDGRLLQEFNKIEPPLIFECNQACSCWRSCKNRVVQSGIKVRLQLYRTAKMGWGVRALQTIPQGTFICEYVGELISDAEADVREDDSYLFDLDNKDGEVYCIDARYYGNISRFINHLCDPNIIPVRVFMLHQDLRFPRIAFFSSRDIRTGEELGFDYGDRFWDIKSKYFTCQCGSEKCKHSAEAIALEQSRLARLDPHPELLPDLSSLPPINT
In words: MALDI-TOF methylation study of G9a enzymatic activity (H3 peptide, SAM). The format is biochemical. Here is the method:
Figure 3 compounds were synthesized from the commercially available starting material 1. An initial displacement reaction using a primary amine was used to introduce the C4 selective substitution, with the second displacement to introduce the linker at the C2 position following the microwave assisted reaction previously reported. Boc-protected ethylene diamine was treated with compound 2 at 160°C in a microwave for 10 min to yield product 3 with excellent yield. Afterward, the amine 3 was deprotected with TFA/DCM, and the free amine was treated with corresponding monomethyl esters (carbon chain 2-6) in the presence of coupling reagent EDCI and HOBt for about 8 hours to produce mono methyl ester substituted at the C2 position. The ester compounds further treated with hydroxylamine in water to get the corresponding hydroxamic acid derivatives, which were purified using reverse phase flash chromatography to obtain compounds 4-7 and 4a-7a in good yield. Synthesis of compounds in Figure 4 requires the C6 demethoxy core, and this was synthesized according to the reported procedure to yield 10 [45]. […] Compounds with the HDAC pharmacophore at the C4 position (Figure 2B) were synthesized from the starting material 1. […] A parallel synthesis and testing strategy were used in establishing the primary SAR, with the clear rationalization of the structure and activity at each stage we could reduce the synthetic targets. Initially, we evaluated the G9a potential after the introduction of HDAC pharmacophore. A biochemical assay using MALDI-TOF was used to visualize the effects of the synthesized compounds on G9a enzymatic activity, we carried out a biochemical reaction involving target enzyme G9a, methyl donor SAM and substrate H3 peptide at a concentration of 400 nM, 10 μM and 5 μM respectively.
Mouse histone methyltransferase G9a (969-1263) cDNA was amplified from the cDNA of BALB/c mouse thymus, and the fragment was sub-cloned into a vector with a 6His-sumo tag. The mouse G9a (mG9a) was expressed in Escherichia coli BL21 (DE3) by the addition of 1 mM isopropyl-1-thio-D-galactopyranoside (IPTG) and incubated overnight at 16°C.
The in vitro inhibition of G9a by the synthesized compounds were measured by MALDI-TOF mass spectrum (Bruker MALDI TOF/TOF Analyzer). 400 nM purified G9a, 5 μM synthesized histone H3 (1-21) and 10 μM non-radioactive S-adenosyl methionine (Sigma) were added in reaction buffer (50 mM HEPES pH 8.0, 5 μg/ml BSA and 0.1% β-Mercaptoethanol) with or without inhibitors (5 μM). The reaction was incubated at room temperature for 30 min, and stopped by TFA. 1 μl of the sample was mixed with CHCA matrix and m/z peaks were obtained at reflection positive mode. The results of mass spectrum were analyzed using the Bruker flex analysis software, a detailed description of data processing is provided as supplementary information (S3).
[…]
MALDI spectrums were collected using Bruker flex % conversion to product is also C, from this to get the control software and analyzed by flex analysis. After %maximal activity (%MA), C was compared to the % labelling each cluster peaks of H3K9Me0, H3K9Me1 conversion when no inhibitor was used (D). and H3K9Me2 for all of the tested concentrations, area Finally % inhibition was found by subtracting under the cluster (AUC) were extracted by using the same %MA from 100 […]
flex analysis software. % abundance of each peak was Example: % methylation levels and % inhibition calculated by following formula, when used 5 μM compound 14
A = % Abundance of (H3K9Me0) = area of A = 13.09
B = % Abundance of (H3K9Me1) = area of % conversion when no inhibitor was used D = 84.43 H3K9Me1/ (area of H3K9Me0+area of H3K9Me1 + area (average of six measurements) […]

Another assay deals with MDA-MB-231 cells. Nature of the assay: Cell anti-proliferation / toxicity assay (CCK-8), MDA-MB-231. It is filed as cell-based. The note with it: Homo sapiens, MDA-MB-231, 72 h, CCK-8, read-out: EC50 MDA-MB-231. The method, then:
Initial tests designed around assessing whether a synergistic effect would be observed in real when a combination of G9a inhibitor and HDAC inhibitor used in conjunction.
Cell anti-proliferation assays were performed to determine the toxicity of these inhibitors. Several cell lines (MDA-MB-231, MCF-7 and A549) were incubated and then treated with varying concentrations of the inhibitors for 72 h, respectively. […] These compounds were further evaluated against the control cell line HEK293 to test their toxicity with a non-cancerous cell line.
A549, MDA-MB-231, MCF-7 and HEK293 cells were seeded at 8000-10000 cells (100 μl) in white 96-well plates and pre-incubate the plate for 24 h under standard cell culture conditions, respectively. And then the cells were exposed to the different inhibitors with various concentrations for 72 h. Finally, 10 μl of CCK-8 kit solution was added to each well and incubated for 3-4 hours under standard cell culture conditions, and the 96 well plates were measured the absorbance at 450 nm using Perkin–Elmer Wallac Victor ^3V 1420 multi label plate reader (Perkin–Elmer, Wellesley, USA). EC50s were calculated using GraphPad Prizm statistical package with sigmoidal variable slope dose response curve fit.

Another assay concerns HDAC. Nature of the assay: Homogeneous cellular histone deacetylase assay, K562. It is filed as cell-based, human. The method, then: The enzymatic activity of HDAC was measured in intact cells using the homogeneous cellular assay method. A cell-permeable peptide Boc-K(Ac)-AMC used as the HDAC substrate, after deacetylation it is cleaved by trypsin to release the fluorescent 7-amino-4-methylcoumarin (AMC) and further quantified.
The manual assay was developed by Thomas's group. […] After 24 h, 9 μl inhibitors with different concentration were added to the HeLa cells and incubation was continued for 3 h under cell culture conditions. After this treatment period, 10 μl of a 2 mM stock solution of the substrate Boc-K(Ac)-AMC was added into the 96 well plates with Hela cells and inhibitors. […] A549 and K562 cell lines used the same method, respectively. IC50s were calculated using GraphPad Prizm statistical package with sigmoidal variable slope dose response curve fit.

Where [2] appears, read: Supplementary Table 1, inhibitor 5 μM, 30 min, average of 3 values.

The inhibition is the drop in the measured response relative to a control, in per cent. Read a high inhibition as a response far below the control. Usually EC50 stands for the midpoint of the concentration-response curve. The IC50 is the concentration that inhibits the measured activity by half.

Read-outs that look alike come from different tables or passages of the source.

`COc1ccc2c(NC3CCN(Cc4ccccc4)CC3)nc(NCCNC(=O)CCCCCC(=O)NO)nc2c1` [Compound 14, N1-(2-((4-((1-benzylpiperidin-4-yl)amino)-7-methoxyquinazolin-2-yl)amino)ethyl)-N7-hydroxyheptanediamide] yielded an inhibition at 5 µM in assay [1] (setting [2]) of 29.7 ± 23.3%. Moreover, testing at 5 µM in assay [1] (worked example, single spectrum, 5 μM compound) gave an inhibition of 69.5%. In assay [1] (worked example, 5 μM compound), the “A = % Abundance of (H3K9Me0)” value was 13.09%, the “B = % Abundance of (H3K9Me1)” value came to 61.18% and the “C = % Abundance of (H3K9Me2) (% conversion to product)” value was found to be 25.72%. Moreover, the activity at 5 µM in assay [1] (worked example, 5 μM compound, relative to no inhibitor (84.43), read-out: % maximal activity (%MA)) stood at 30.5%. The EC50 with MDA-MB-231 cells (Table 6, mean ± SD of triplicates) was 10 ± 1.66 µM. For the same compound, the IC50 in the assay on HDAC (Table 3, Boc-K(Ac)-AMC substrate, intact K562 cells, read-out: K562 IC50) turned out to be 5.74 ± 1.23 µM.
In assay [1] (setting [2]), `COc1ccc2c(NCCNC(=O)CCCCCC(=O)NO)nc(N3CCCN(C)CC3)nc2c1` [Compound 22, N1-hydroxy-N7-(2-((7-methoxy-2-(4-methyl-1,4-diazepan-1-yl)quinazolin-4-yl)amino)ethyl)heptanediamide] gave an inhibition at 5 µM of 40.3 ± 15.3%. The EC50 in the assay with MDA-MB-231 cells (Supplementary Table 4, >100 = not reached at 100 μM) was above 100 µM. Moreover, the IC50 in the assay with HDAC (Supplementary Table 2, NA = not active up to highest concentration tested (100 μM), >100 = IC50 not reached at 100 μM, read-out: IC50-HDAC K562) is above 100 µM.
